Reference: patent US20230089530A1, “QUINUCLIDINONE ANALOGUES AS ANTICANCER AGENTS” (Newave Pharmaceutical Inc., priority 2020, published 2023)
pIC50: −log10 of the molar value.

What was measured:
[1] = system: RS4;11(G101V) cancer cells; assay: In vitro anti-proliferation assay in RS4;11 cell line with G101V mutation (ATPlite luminescence); format: cell-based; conditions: about 72 hours incubation, medium supplemented with 5% FBS or 10% normal human serum
Protocol: Biological Example 1: In Vitro Anti-Proliferation Assay in BCL-2-Dependent Acute Lymphoblastic Leukemia (ALL) Cell Line RS4;11 with G101V Mutation
(§1) The RS4;11 cell line used herein was engineered to stably overexpress the G101V mutant form of human Bcl-2. The cell antiproliferation was assayed by PerkinElmer ATPlite™ Luminescence Assay System. Briefly, the RS4;11(G101V) cancer cells were plated at a density of about 1×10^4 cells per well in Costar 96-well plates, and were incubated with different concentrations of compounds for about 72 hours in medium supplemented with 5% FBS or 10% normal human serum (NHS). One lyophilized substrate solution vial was then reconstituted by adding 5 mL of substrate buffer solution, and was agitated gently until the solution was homogeneous. About 50 μL of mammalian cell lysis solution was added to 100 μL of cell suspension per well of a microplate, and the plate was shaken for about five minutes in an orbital shaker at ˜700 rpm. This procedure was used to lyse the cells and to stabilize the ATP. Next, 50 μL substrate solution was added to the wells and microplate was shaken for five minutes in an orbital shaker at ˜700 rpm. Finally, the luminescence was measured by a PerkinElmer TopCount® Microplate Scintillation Counter. Such assays, carried out with a range of doses of test compounds, allowed the determination of the cellular anti-antiproliferative IC50 of the compounds of the present invention. The following table lists the IC50 values of certain compounds of the invention.

RS4;11-G101V cell line = assay: Another in vitro anti-proliferation assay in RS4;11-G101V cell line; format: cell-based, human
Protocol: as §1
The following table lists the IC50 values of another in vitro anti-proliferation assay in RS4;11-G101V cell line.

Mice PK study = format: in vivo; conditions: CD-1 mouse
Protocol: The pharmacokinetics of compounds were evaluated in CD-1 mouse via Intravenous and Oral Administration. The IV dose was administered as a slow bolus in the Jugular vein, and oral doses were administered by gavage. The formulation for IV dosing was 5% DMSO in 20% HPBCD in water, and the PO formulation was 2.5% DMSO, 10% EtOH, 20% Cremphor EL, 67.5% D5W. The PK time point for the IV arm was 5, 15, 30 min, 1, 2, 4, 6, 8, 12, 24 hours post dose, and for PO arm was 15, 30 min, 1, 2, 4, 6, 8, 12, 24 hours post dose. Approximately 0.03 mL blood was collected at each time point. Blood of each sample was transferred into plastic micro centrifuge tubes containing EDTA-K2 and collect plasma within 15 min by centrifugation at 4000 g for 5 minutes in a 4° C. centrifuge. Plasma samples were stored in polypropylene tubes. The samples were stored in a freezer at −75±15° C. prior to analysis. Concentrations of compounds in the plasma samples were analyzed using a LC-MS/MS method. WinNonlin (Phoenix™, version 6.1) or other similar software was used for pharmacokinetic calculations. The following pharmacokinetic parameters were calculated, whenever possible from the plasma concentration versus time data: IV administration: C0, CL, Vd, T1/2, AUCinf, AUClast, MRT, Number of Points for Regression; PO administration: Cmax, Tmax, T1/2, AUCinf, AUClast, F %, Number of Points for Regression. The pharmacokinetic data was described using descriptive statistics such as mean, standard deviation.

| SMILES | pIC50 ([1]; Homo sapiens, RS4-11, 72 h) | pIC50 [1] | also measured |
| --- | --- | --- | --- |
| COC[C@@]1(CO)C(=O)C2(C)CCN1CC2 (single isomer, unassigned) [Example 3 (isomer 1)] | > 5.30 | – | – |
| COC[C@@]1(CO)C(=O)C2(C)CCN1CC2 (single isomer, unassigned) [Example 3 (isomer 2)] | – | < 5.30 | – |
| CCC12CCN(CC1)[C@@](CO)(COC)C2=O (single isomer, unassigned) [Example 6(isomer 1)] | > 5.30 | – | – |
| CCC12CCN(CC1)[C@](CO)(COC)C2=O (single isomer, unassigned) [Example 6(isomer 2)] | > 5.30 | – | – |
| CCOC[C@@]1(CO)C(=O)C2(C)CCN1CC2 (single isomer, unassigned) [Example 7(isomer 1)] | > 5.30 | – | – |
| CCOC[C@]1(CO)C(=O)C2(C)CCN1CC2 (single isomer, unassigned) [Example 7(isomer 2)] | > 5.30 | – | – |
| CC(C)OCC1(CO)C(=O)C2(C)CCN1CC2 (single isomer, unassigned) [Example 8(isomer 1), 2-(hydroxymethyl)-2-(isopropoxymethyl)-4-methyl-1-azabicyclo[2.2.2]octan-3-one] | > 5.30 | – | – |
| CC(C)OCC1(CO)C(=O)C2(C)CCN1CC2 (single isomer, unassigned) [Example 8(isomer 2), 2-(hydroxymethyl)-2-(isopropoxymethyl)-4-methyl-1-azabicyclo[2.2.2]octan-3-one] | – | > 5.30 | – |
| COCC1(CO)C(=O)C2CCN1CC2 (stereo not shown) [APR-246, reference compound] | – | > 5.30 | pIC50 (RS4;11-G101V cell line): 5.75 |
| COCC1(CO)C(=O)C2(C)CCN1CC2 (stereo not shown) [Example 2, 2-(hydroxymethyl)-2-(methoxymethyl)-4-methyl-1-azabicyclo[2.2.2]octan-3-one] | > 5.30 | – | – |
| CC12CCN(CC1)C(CO)(CO)C2=O [Example 4, 2,2-bis(hydroxymethyl)-4-methyl-1-azabicyclo[2.2.2]octan-3-one] | < 5.30 | – | – |
| COCC1(CO)C(=O)C2(C(C)C)CCN1CC2 (stereo not shown) [Example 5, 2-(hydroxymethyl)-4-isopropyl-2-(methoxymethyl)-1-azabicyclo[2.2.2]octan-3-one] | > 5.30 | – | – |
| COCC1(CO)C(=O)C2(F)CCN1CC2 (stereo not shown) [Example 9, 4-fluoro-2-(hydroxymethyl)-2-(methoxymethyl)-1-azabicyclo[2.2.2]octan-3-one] | < 5.30 | – | – |
| COCC1(CO)C(=O)C2(C(F)(F)F)CCN1CC2 (stereo not shown) [Example 10, 2-(hydroxymethyl)-2-(methoxymethyl)-4-(trifluoromethyl)-1-azabicyclo[2.2.2]octan-3-one] | < 5.30 | – | – |
| COC[C@]1(CO)C(=O)[C@H]2CC[N@]1[C@H](C)C2 [Example 15, (1R,2R,4S,6R)-2-(hydroxymethyl)-2-(methoxymethyl)-6-methylquinuclidin-3-one] | – | > 5.30 | bioavailability (in words) (Mice PK study): excellent bioavailability; Bioavailabilty (Mice PK study; Oral, 100 mpk): 79%; AUClas (Mice PK study; Oral, 100 mpk, plasma): 26,093 h*ng/mL; pIC50 (RS4;11-G101V cell line): 6.14; potency compared with reference compound APR-246 (RS4;11-G101V cell line): more potent than the reference compound APR-246 |
| COC[C@@]1(CO)C(=O)[C@@H]2CC[N@@]1[C@@H](C)C2 [Example 16, (1S,2S,4R,6S)-2-(hydroxymethyl)-2-(methoxymethyl)-6-methylquinuclidin-3-one] | – | > 5.30 | – |
